Data on 6 compounds can be found in ChEMBL document CHEMBL1156812, “Novel synthesis of the hexahydroimidazo[1,5b]isoquinoline scaffold: application to the synthesis of glucocorticoid receptor modulators” (J Med Chem, 2010).

Series [1] concerns the target T1, Glucocorticoid receptor (Homo sapiens, UniProt P04150).
T1 sequence (P04150 whole entry): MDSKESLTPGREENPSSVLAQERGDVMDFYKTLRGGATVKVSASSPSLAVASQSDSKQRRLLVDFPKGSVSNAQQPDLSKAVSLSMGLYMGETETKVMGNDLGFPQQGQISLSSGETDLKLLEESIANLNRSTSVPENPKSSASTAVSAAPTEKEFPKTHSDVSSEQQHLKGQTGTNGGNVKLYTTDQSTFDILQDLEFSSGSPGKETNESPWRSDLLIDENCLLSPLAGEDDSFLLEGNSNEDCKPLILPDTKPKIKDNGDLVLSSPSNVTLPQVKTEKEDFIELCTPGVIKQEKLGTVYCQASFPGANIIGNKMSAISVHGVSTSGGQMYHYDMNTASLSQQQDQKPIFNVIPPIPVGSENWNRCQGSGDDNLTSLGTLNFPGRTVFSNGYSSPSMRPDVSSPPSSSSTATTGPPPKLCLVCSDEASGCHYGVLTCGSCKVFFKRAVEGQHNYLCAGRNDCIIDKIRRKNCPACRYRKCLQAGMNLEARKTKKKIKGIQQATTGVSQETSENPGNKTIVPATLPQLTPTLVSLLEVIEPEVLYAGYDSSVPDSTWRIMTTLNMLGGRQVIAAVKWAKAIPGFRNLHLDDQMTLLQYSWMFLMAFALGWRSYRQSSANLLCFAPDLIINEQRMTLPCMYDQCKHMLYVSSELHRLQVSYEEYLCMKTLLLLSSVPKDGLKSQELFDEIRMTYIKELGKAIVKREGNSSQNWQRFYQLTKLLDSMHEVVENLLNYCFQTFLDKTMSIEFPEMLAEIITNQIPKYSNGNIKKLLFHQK
The series can be described thus: Displacement of GS-red from human glucocorticoid receptor by fluorescent polarization assay.

The target in series [2] is T1, Glucocorticoid receptor. The series can be described thus: Transrepression activity at glucocorticoid receptor expressed in human A549 cells assessed as inhibition of PMA-induced AP1 activity after 6 hrs by luciferase reporter gene assay. The class given is cell-based. (In general: Reporter assays use an easily measured gene product as a stand-in for the process of interest.)

Series [3] addresses T1, Glucocorticoid receptor. The series is described as follows: Transrepression activity at glucocorticoid receptor expressed in human A549 cells assessed as inhibition of IL-1-beta-induced NF-kappaB dependent E-selection promoter activation after 6 hrs by luciferase reporter gene based ELAM assay. The series is classed as cell-based.
In series [4] the target is T1, Glucocorticoid receptor. The series can be described thus: Transactivation of GAL-4 tagged glucocorticoid receptor ligand binding domain expressed in human HeLa cells assessed as NP1 activation by luciferase reporter gene assay. The series is classed as cell-based.
A further series deals with T2, Androgen receptor (Homo sapiens, UniProt P10275).
T2 sequence (P10275 whole entry): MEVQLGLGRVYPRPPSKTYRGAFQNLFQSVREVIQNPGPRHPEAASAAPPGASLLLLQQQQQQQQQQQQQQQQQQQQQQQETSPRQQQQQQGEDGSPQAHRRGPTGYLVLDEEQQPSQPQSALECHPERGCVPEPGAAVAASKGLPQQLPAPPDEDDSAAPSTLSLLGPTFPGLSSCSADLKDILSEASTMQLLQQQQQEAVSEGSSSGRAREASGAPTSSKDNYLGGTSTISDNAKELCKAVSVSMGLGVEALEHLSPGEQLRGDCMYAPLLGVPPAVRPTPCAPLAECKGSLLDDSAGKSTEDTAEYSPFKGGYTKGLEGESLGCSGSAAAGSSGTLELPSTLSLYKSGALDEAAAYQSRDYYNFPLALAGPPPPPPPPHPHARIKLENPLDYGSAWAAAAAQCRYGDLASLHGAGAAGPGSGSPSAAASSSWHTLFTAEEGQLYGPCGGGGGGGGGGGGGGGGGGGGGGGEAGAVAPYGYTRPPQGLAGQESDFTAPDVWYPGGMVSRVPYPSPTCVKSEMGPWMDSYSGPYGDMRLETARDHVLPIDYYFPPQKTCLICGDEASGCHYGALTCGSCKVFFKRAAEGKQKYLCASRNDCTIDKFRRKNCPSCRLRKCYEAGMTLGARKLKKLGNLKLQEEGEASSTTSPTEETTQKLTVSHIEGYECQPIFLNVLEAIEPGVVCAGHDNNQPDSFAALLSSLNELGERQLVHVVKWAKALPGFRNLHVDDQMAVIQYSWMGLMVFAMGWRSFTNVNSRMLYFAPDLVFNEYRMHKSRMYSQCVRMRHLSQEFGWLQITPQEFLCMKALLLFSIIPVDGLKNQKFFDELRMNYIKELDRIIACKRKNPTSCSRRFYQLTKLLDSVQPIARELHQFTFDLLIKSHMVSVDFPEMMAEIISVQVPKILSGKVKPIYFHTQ
The series is described as follows: Binding affinity to androgen receptor.

The target in a further series is T3, Progesterone receptor (Homo sapiens, UniProt P06401).
T3 sequence (P06401 whole entry): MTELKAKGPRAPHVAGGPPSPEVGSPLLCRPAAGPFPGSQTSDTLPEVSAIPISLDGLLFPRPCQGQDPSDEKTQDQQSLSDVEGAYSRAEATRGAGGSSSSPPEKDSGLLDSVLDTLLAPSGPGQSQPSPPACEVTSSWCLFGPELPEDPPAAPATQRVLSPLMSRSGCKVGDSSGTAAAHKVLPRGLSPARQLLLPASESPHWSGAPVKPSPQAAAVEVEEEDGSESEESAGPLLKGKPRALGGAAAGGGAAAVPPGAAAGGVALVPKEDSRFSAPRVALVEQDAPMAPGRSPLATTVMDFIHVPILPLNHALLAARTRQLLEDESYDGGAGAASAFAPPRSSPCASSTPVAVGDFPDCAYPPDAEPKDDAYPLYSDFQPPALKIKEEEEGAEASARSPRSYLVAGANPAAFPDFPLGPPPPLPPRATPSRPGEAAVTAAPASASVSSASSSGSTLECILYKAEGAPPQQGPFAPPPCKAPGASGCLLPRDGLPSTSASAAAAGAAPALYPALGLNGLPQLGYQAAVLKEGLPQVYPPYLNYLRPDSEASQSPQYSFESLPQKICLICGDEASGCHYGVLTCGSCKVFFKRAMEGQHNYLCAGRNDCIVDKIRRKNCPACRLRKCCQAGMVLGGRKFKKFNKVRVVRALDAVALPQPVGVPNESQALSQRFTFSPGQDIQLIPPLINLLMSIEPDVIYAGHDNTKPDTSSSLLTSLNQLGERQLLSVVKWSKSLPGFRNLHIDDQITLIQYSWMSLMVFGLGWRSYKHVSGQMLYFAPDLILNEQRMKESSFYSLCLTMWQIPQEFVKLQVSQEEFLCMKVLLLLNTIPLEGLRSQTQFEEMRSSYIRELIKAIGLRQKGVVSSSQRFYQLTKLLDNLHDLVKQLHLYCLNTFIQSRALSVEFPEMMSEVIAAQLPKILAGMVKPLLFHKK
The series can be described thus: Binding affinity to progesterone receptor.

The nature of series [5]: Metabolic stability in human liver microsomes assessed as compound remaining at 3 uM after 10 mins. The class given is ADME, Microsome. The conditions noted are these: read-out: Stability.
Series [6] in a line: Metabolic stability in rat liver microsomes assessed as compound remaining at 3 uM after 10 mins. The series is classed as ADME, Microsome. As to conditions: read-out: Stability. (In general: Microsomes from liver hold many membrane-bound enzymes, among them those of drug oxidation.)
Series [7] is described as follows: Metabolic stability in mouse liver microsomes assessed as compound remaining at 3 uM after 10 mins. The class given is ADME, Microsome. As to conditions: read-out: Stability.

Regarding `C=CC[C@@](C)(O)[C@H]1CCCC2=Cc3c(-c4ccc(F)cc4)ncn3C[C@@]21C`, the inhibition constant (Ki) at Glucocorticoid receptor [1] amounted to 4.3 nM; on Progesterone receptor, 1810 nM. For the same compound, the EC50 on Glucocorticoid receptor [2] is 57 nM; at Glucocorticoid receptor [3], 79 nM; at Glucocorticoid receptor [4], over 5000 nM. This compound also registered a concentration for half-maximal inhibition (IC50) at Androgen receptor of over 4000 nM.
With `C[C@]12Cn3cnc(-c4ccc(F)cc4)c3C=C1CCC[C@@H]2[C@](C)(O)c1cccs1`, the Ki worked out at 2 nM on Glucocorticoid receptor [1] and 230 nM on Progesterone receptor. Besides, the concentration for a half-maximal effect (EC50) at Glucocorticoid receptor [2] is 52 nM; at Glucocorticoid receptor [3] it was 41 nM. At Androgen receptor, the IC50 was over 4000 nM.
On to `Cc1ccsc1[C@@](C)(O)[C@H]1CCCC2=Cc3c(-c4ccc(F)cc4)ncn3C[C@@]21C`, for which the Ki was 2 nM at Glucocorticoid receptor [1] and 132 nM on Progesterone receptor. The concentration for a half-maximal effect (EC50) at Glucocorticoid receptor [2] worked out at 29 nM; on Glucocorticoid receptor [3], 30 nM; on Glucocorticoid receptor [4], 380 nM. The same compound showed an IC50 on Androgen receptor of over 4000 nM. Besides, the remaining at 10 min, 3 µM in [5] was 3%; in series [6], 2%; in series [7] it was 21%.
As to `C[C@]12Cn3cnc(-c4ccc(F)cc4)c3C=C1CCC[C@@H]2[C@](C)(O)c1ccc(Cl)cc1`, the Ki on Glucocorticoid receptor [1] was 2 nM; at Progesterone receptor, 238 nM. The concentration for a half-maximal effect (EC50) on Glucocorticoid receptor [2] was 7.5 nM; on Glucocorticoid receptor [3], 19 nM; at Glucocorticoid receptor [4] it was 697 nM. For the same compound, the IC50 on Androgen receptor was over 4000 nM. Besides, the figures for the remaining at 10 min, 3 µM in series [5], in series [6] and in series [7] were 56%, 51% and 73%, respectively.
As to `C[C@]12Cn3cnc(-c4ccc(F)cc4)c3C=C1CCC[C@@H]2[C@H](O)c1ccc(F)cc1` (stereo in doubt; 19), the inhibition constant Ki worked out at 21 nM on Glucocorticoid receptor [1] and 451 nM at Progesterone receptor. Besides, the concentration for a half-maximal effect (EC50) worked out at 272 nM on Glucocorticoid receptor [2] and 243 nM on Glucocorticoid receptor [3].
Take `C[C@]12Cn3cnc(-c4ccc(F)cc4)c3C=C1CCC[C@@H]2[C@](C)(O)c1ccc(Cl)s1`: the inhibitory constant (Ki) on Glucocorticoid receptor [1] is 4 nM; at Progesterone receptor, 409 nM. Moreover, the EC50 on Glucocorticoid receptor [2] was found to be 11 nM; on Glucocorticoid receptor [3] it was 11 nM; on Glucocorticoid receptor [4], 253 nM. This compound registered an IC50 at Androgen receptor of over 4000 nM.

By Ki is commonly meant a dissociation constant, usually derived from enzyme kinetics or from competition with a known ligand. The low end stands for tighter binding, the high end for weaker binding. What is called EC50 is the concentration at which the effect is half-maximal. The IC50 is the midpoint of a concentration-inhibition curve. High values mean lower potency, low ones higher potency.
